Data set [1] concerns FaDu cells. Description: Cell viability assay (CCK-8). The data set is classed as cell-based. The note with it: FaDu cells. On the procedure: (§1) To evaluate the toxicity of OCTL14 and cRGD-ZW800-PEG on FaDu cells, cell viability was measured by using the Cell Counting Kit-8 (CCK-8, Dojindo Molecular Technologies Inc., Kumamoto, Japan). FaDu cells were seeded at a density of 400 cells/well in a 96-well plate, and then they were then treated with either 2, 5, 10, and 20 μM OCTL14 or 1.6, 3.1, 6.3, 12.5, 25, 50, and 100 μM cRGD-ZW800-PEG in growth medium for 24 h at 37 °C. Then, the dye and old medium were removed from all wells, and new medium were added and incubated for 24 h before 10 μl of CCK-8 solution was added to each well. After 3 h of incubation for OCTL14 and 4 h of incubation for cRGD-ZW800-PEG, absorbance was measured at 450 nm using a microplate reader. The cell survival rate for each dye was calculated using the following equation: Survival rate (%) = (Asample − Ab)/(Ac − Ab) × 100 (Asample, absorbance of sample; Ab, absorbance of blank well; Ac, absorbance of negative control). Experiments were repeated at least 3 times.

Data set [2] has as its system FaDu cells. Description: Cell binding assay. The class given is cell-based. As to conditions: OCTL14 20 min, cRGD-ZW800-PEG 30 min, Cy5 / Cy7 fluorescence imaging, n = 6. The method, then: To evaluate the cellular uptake of OCTL14 and cRGD-ZW800-PEG in HNSCC cells, a cell binding assay was done using FaDu cells (HTB-43), purchased from the American Type Culture Collection (Manassas, VA, USA). The cells were first cultured in complete Dulbecco’s modified Eagle’s medium (cDMEM) supplemented with 4.5 g/l glucose, L-glutamine and sodium pyruvate, 10% FBS, and 1% penicillin/streptomycin (Lonza, DE17-602E) at 37 °C in a 5% CO2 humidified chamber. Then, cells were seeded in a 24-well plate at a density of 20,000 cells/well and incubated for 24 h. After discarding old medium and washing twice with Hanks’ balanced salt solution (HBSS), the cells were incubated with OCTL14 for 20 min and with cRGD-ZW800-PEG for 30 min, respectively. The wells were washed 3 times with HBSS before fluorescence images were captured using Cy5 and Cy7 filters on Cytation 5 for OCTL14 and cRGD-ZW800-PEG, respectively.

Data set [3] in a line: Biodistribution and clearance, K-FLARE NIR imaging. As to conditions: tumor-bearing nude mice; 100 nmol intravenous; 4 h post-injection; SBR relative to muscle.
A short description of data set [4]: Serum protein binding assay, rapid equilibrium dialysis. As to conditions: rapid equilibrium dialysis device; 5 μM; 10% fetal bovine serum; 8 h incubation; absorbance read-out of sample and buffer chamber (Cytation 5). For orientation: In equilibrium dialysis only unbound substance equilibrates across the membrane.
Data set [5] in a line: Photostability under NIR irradiation. As to conditions: under 630-nm NIR light; 25 μM in 10% FBS; up to 3 h.
In data set [6] the test system is FaDu cells. Description: Cellular uptake inhibition assay. The data set is classed as cell-based. As to conditions: n = 6. The method, then: To reveal the uptake mechanism of OCTL14 on FaDu cells, a cellular uptake inhibition assay was performed using bromsulphthalein (BSP) (Sigma-Aldrich, St. Louis, MO, USA) and corticosteroid (Sigma-Aldrich). First, the 15,000 cells were plated per well on a 24-well plate. After incubation for 48 h at 37 °C, cells were washed twice with 0.5 ml of HBSS. Then, the cells were pretreated with 250 μM BSP for 5 min or 25 μM corticosteroid for 5 min, before they were incubated with 2 μM OCTL14 for 15 min at 37 °C. To rule out the possible diffusion of OCTL14 across the plasma membrane, FaDu cells were incubated with 2 μM OCTL14 at 4 °C for 15 min. Serum-free medium was added to the control group without any inhibitors. After washing, images were acquired by Cytation 5 using a Cy5 filter. ImageJ software version 1.52p was used to measure the fluorescent intensity of FaDu cells at each condition.

Data set [7] relates to FaDu tongue cancer xenograft. The data set can be described thus: Intraoperative fluorescence imaging of orthotopic and ectopic FaDu tumors (TBR, histology). As to conditions: for Tumor-to-background ratio (TBR): FaDu tongue cancer xenograft, intravenous, within 4 h post-injection, OCTL14 cancerous tissue, cRGD-ZW800-PEG surrounding TME; for Localisation by histopathologic analysis: orthotopic FaDu tongue tumor, 4 h after intravenous injection, frozen sections, NIR and H&E. The class given is in vivo, mice. The method, then: To evaluate the targetability of OCTL14 and cRGD-ZW800-PEG on the orthotopic xenograft model of tongue cancer, 0.5 × 10^6 of FaDu cells in a 30-μl mixture of saline and Matrigel (1:2 ratio) were injected subepithelially into the tip of the tongue using an insulin syringe. When the size of the tongue tumor reached 2 mm, dual fluorescence imaging was performed by injecting cRGD-ZW800-PEG and OCTL14 intravenously 4 h prior to imaging. For the ectopic xenograft model of HNSCC, 0.5 × 10^6 of FaDu cells in a 50-μl mixture of saline and Matrigel (1:2 ratio) were injected subcutaneously on the lower back of the mouse. When the size of the ectopic tumor reached 3 mm, in vivo evaluation of the targetability of the 2 NIR fluorophores was performed. All the animal surgeries were performed under anesthesia with isoflurane.
The real-time fluorescence intensity of OCTL14 and cRGD-ZW800-PEG at the orthotopic and ectopic tumors was compared with the surrounding nontumor region (background signal) to evaluate the TBR. After intraoperative imaging, the fluorescence intensity of the tumor tissue was acquired using ImageJ software and divided by the fluorescence intensity of the surrounding tissue to calculate TBR for both OCTL14 and cRGD-ZW800-PEG. Quantitative time-course assessment of both orthotopic and ectopic tongue cancer was performed for both OCTL14 and cRGD-ZW800-PEG at 1, 4, 6, and 24 h post-intravenous injection. At least 3 head and neck tumor models were evaluated for the quantitative analysis of TBR.
Tumor and TME targetability of OCTL14 and cRGD-ZW800-PEG were confirmed by histology analysis on the orthotopic HNSCC xenograft model. The tumor-bearing tongue was excised from the mouse after in vivo imaging of the tumors at 4 h after intravenous injection of the 2 fluorophores, and embedded in Tissue-Tek optimal cutting temperature compound (Sakura Finetek, Torrance, CA, USA). Frozen sections were acquired and placed on slides with a cut thickness of 10 μm using a cryostat (Leica, Germany). Fluorescence images were taken for both OCTL14 and cRGD-ZW800-PEG using Cy5 filter and Cy7 filter on Cytation 5, respectively. After dual fluorescence imaging, the tissue sections were stained with hematoxylin and eosin (H&E), and bright-field images of the orthotopic tongue cancer were acquired using Cytation 5.

Test in data set [8]: not given
The source holds these as a separate data set.

Data set [9] in a line: Cell viability assay (CCK-8). The class given is cell-based. The method, then:
as §1

Test in data set [10]: not given
The source holds these as a separate data set.

We go through 2 compounds from paper PMC12636036, “Precise Detection of Surgical Margin in Head and Neck Cancer Using Dual Near-Infrared Imaging of the Tumor and Tumor Microenvironment” (Biomaterials Research, 2025).

As for `Br.C[N+]1=C(/C=C2\C(=O)C(/C=C3/N(CCC[N+](C)(C)C)c4ccc(F)cc4C3(C)C)=C2[O-])C(C)(C)c2ccccc21.[I-]` [OCTL14], the IC50 with FaDu cells [1] (24 h treatment at 37 °C, then 24 h in new medium, absorbance 450 nm, n = 5, read-out: IC50 (cytotoxicity, CCK-8)) was 42.1 µM. The “Concentration up to which little toxicity was shown” value with FaDu cells [1] (CCK-8 assay, 24 h treatment) is at most 20 µM. Moreover, the “Uptake in FaDu cells (cell binding assay)” value in the data set on FaDu cells [2] is given as “significantly high target affinity”. Further, in data set [3], the “Biodistribution (SBR of resected organs)” value is “high SBR in the kidney, gallbladder, and intestine”. For the same compound, the “Plasma protein binding, 8 h (%Bound)” value in data set [4] is 4.46%. The “Photostability: remaining initial absorbance” value in data set [5] is “over 90%”. Also, the “Uptake in cold inhibition test” value in the data set on FaDu cells [6] (2 μM OCTL14 at 4 °C) is given as “Negative uptake”. For the same compound, the “Effect of corticosteroid (OCT inhibitor) on uptake of OCTL14” value in the data set with FaDu cells [6] (25 μM corticosteroid pretreatment 5 min, 2 μM OCTL14, 15 min, 37 °C, compared to control) was “significantly reduced the uptake”. Further, the “Effect of BSP (OATP inhibitor) on uptake of OCTL14” value in the data set on FaDu cells [6] (250 μM BSP pretreatment 5 min, 2 μM OCTL14, 15 min, 37 °C) is on record as “little impact”. Moreover, in data set [7], the “Tumor-to-background ratio (TBR)” value is reported as over 2.0 and the “Localisation by histopathologic analysis” value was “effectively imaged the tumor cell itself”.

Consider `CC1(C)C(=CC=C2CCCC(C=CC3=[N+](CCC[N+](C)(C)C)c4ccc(S(=O)(=O)O)cc4C3(C)C)=C2SCCOCCOCCC(=O)NCCCC[C@@H]2NC(=O)[C@@H](Cc3ccc(O)cc3)NC(=O)[C@H](CC(=O)O)NC(=O)CNC(=O)[C@H](CCCNC(=N)N)NC2=O)N(CCC[N+](C)(C)C)c2ccc(S(=O)(=O)O)cc21` [cRGD-ZW800-PEG], for which the absorbance maximum was determined as 784 nm. This compound displayed a fluorescence maximum in [8] of 809 nm. Besides, the midpoint of inhibition in [9], the IC50, lay at 45.8 µM. For the same compound, in the data set with FaDu cells [2], the “Uptake in FaDu cells (cell binding assay)” value is “limited uptake”. For the same compound, the quantum yield (QY) in [10] came out at 8.52%. In data set [7], the “Tumor-to-background ratio (TBR)” value is listed as over 1.5 and the “Localisation by histopathologic analysis” value is reported as “peritumoral tissue was the primary target”.

By IC50 is commonly meant the concentration that gives 50% inhibition.
